According to patent US12186304B2, “Method for treating cancer by combination of IAP inhibitor and modulator of immune checkpoint molecule” (ASCENTAGE PHARMA (SUZHOU) CO., LTD., priority 2018, dated 2025):

Key:
CT26 colorectal cancer = experiment: Combination therapy in CT26 mouse colorectal cancer model; assay type: in vivo; conditions: APG-1387 0.2 mg/kg i.v. once daily, docetaxel 8 mg/kg i.p. once weekly, anti-PD-1 200 μg/mouse i.p. twice weekly
Protocol: Cell inoculation method was used to establish a […] tumor-immunized normal mouse subcutaneous homograft tumor model: tumor cells in logarithmic growth phase were collected, counted, and then resuspended in 1×PBS. The concentration of the cell suspension was adjusted to 2.5-5×10^7/mL. Tumor cells, 5-10×10^6/0.2 mL/mouse, were inoculated subcutaneously in the right back of the immunized normal mouse with a 1 mL syringe ([…]). All animal experimental operations were strictly in accordance with standards for use and management of laboratory animals by Gima Gene Co., Ltd and Suzhou Yasheng Pharmaceutical Co., Ltd. Relevant parameters were calculated with reference to China's NMPA “Guidelines for Non-clinical Research Techniques of Cytotoxic Antitumor Drugs”.
Animal weight and tumor size were measured twice a week during the experiment. Animals were observed daily for status and the occurrence of death. Routine monitoring included the effects of tumor growth and treatment on the normal behaviors of animals, specifically including the activity, feeding and drinking, weight gain or loss, eyes, clothing hair, as well as other abnormalities of the laboratory animals. The deaths and clinical symptoms observed during the experiment were recorded in the original data. The whole process of administration, measurement of mouse weight and tumor volume was carried out in an ultra-clean bench. According to requirements of the experimental program, plasma and tumor tissue were collected, weighed and photographed for record after the end of last administration. Plasma and tumor samples were frozen at −80° C. for later use.
Tumor volume (TV) was calculated as TV=a×b^2/2, wherein a and b represented the length and width of tumor measurement, respectively.
Relative tumor volume (RTV) was calculated as RTV=Vt/V1, wherein V1 was the tumor volume at the time of grouping administration, and Vt was the tumor volume measured on day t after administration.
The evaluation index of anti-tumor activity was relative tumor proliferation rate T/C (%), and was calculated as: relative tumor proliferation rate T/C (%)=(TRTV/CRTV)×100%, wherein TRTV was RTV in treatment group, and CRTV was RTV in vehicle control group.
Tumor remission rate (%) was the number of SD (stable disease), PR (partial regression) and CR (complete regression) in tumor-bearing mice after treatment divided by the total number of mice in that group×100%. CR refers to the complete regression of the tumor, which means the tumor is inaccessible after treatment. PR refers to the partial regression of the tumor, which means tumor volume becomes smaller than before treatment. SD refers to stable tumor progression, which means tumor volume is the same as before treatment. Change of body weight (%)=(measurement of body weight−body weight when grouping)/body weight when grouping×100%.
Efficacy evaluation criteria: according to China's NMPA “Guidelines for Non-clinical Research Techniques of Cytotoxic Antitumor Drugs” (November 2006), T/C (%) value 40% and p<0.05 by statistical analysis were considered as efficacious. If the weight loss of mice exceeded 20%, or the drug-related death percentage exceeded 20%, the drug dose was considered to be severely toxic.
According to Clarke R., Issues in experimental design and endpoint analysis in the study of experimental cytotoxic agents in vivo in breast cancer and other models [J].
A tumor model of CT26 colorectal cancer mouse was established, and the combined anti-tumor effect of APG-1387 with anti-PD-1 antibody and docetaxel was evaluated on this model. The administration regimen was as follows:
APG-1387 monotherapy group: 0.2 mg/kg, intravenous injection, once daily for a total of 17 days;
Docetaxel monotherapy group: 8 mg/kg, intraperitoneal injection, once weekly for a total of 17 days;
Anti-PD-1 antibody monotherapy group: 200 μg/mouse, intraperitoneal injection, twice weekly for a total of 2.5 weeks (i.e., 17 days); […]

[1] = system: advanced or metastatic solid tumor; experiment: Phase I study: anti-tumor activity in all tumor types; assay type: in vivo, human
[2] = system: metastatic pancreatic cancer; experiment: Phase I study: anti-tumor activity in pancreatic cancer; assay type: in vivo, human
[3] = system: effector memory T cells and NK cells; experiment: Lymphocyte analysis (flow cytometry) in MC38 tumor-bearing mice; assay type: in vivo, mouse; conditions: MC38 model; APG-1387 0.2 mg/kg
Protocol: In the experiment of tumor-infiltrated lymphocyte analysis, tissue samples such as spleen, draining lymph node, ascites, tumor or other tissues were collected 24 hours after the last drug administration. A single cell suspension of the spleen and draining lymph nodes was obtained, and the red blood cells were lysed after centrifugation, and the cells were filtered, followed by flow cytometric staining and flow cytometry. The tumor tissue was cut and centrifuged, and the tissue was digested, the cells were filtered. Ficoll was used to separate individual nuclei. Individual nuclei were collected for corresponding antibody flow staining and flow cytometry Ascites samples were collected and centrifuged, and the cells were filtered and subjected to flow cytometry staining and flow cytometry.
The spleen, draining lymph nodes and tumor tissues of MC38 tumor-bearing mice were collected 24 hours after the last administration. Ascites of ID8-Luc tumor mice, tumor tissues of PLC/PRF/5 tumor mice were subjected to tumor infiltrating lymphocyte analysis. The proportion of lymphocytes in the APG-1387 treatment group and control group was analyzed to explore the potential mechanism of anti-tumor effect of APG-1387 combined with anti-PD-1 antibody.

`CN[C@@H](C)C(=O)N[C@H]1CN(S(=O)(=O)c2cccc(S(=O)(=O)N3CC[C@H]4CC[C@@H](C(=O)NC(c5ccccc5)c5ccccc5)N4C(=O)[C@@H](NC(=O)[C@H](C)NC)C3)c2)CC[C@H]2CC[C@@H](C(=O)NC(c3ccccc3)c3ccccc3)N2C1=O` [APG-1387] was tested, and the “T/C (%) value on day 18 after administration” value (CT26 colorectal cancer) was 105%, the “DCR (disease control rate, SD above)” value [1] was 6/24 and the “ORR (objective response rate, CR + PR)” value [1] was 0. The “Best response: CR” value ([1]; patients) was 0, the “Best response: PD” value ([1]; patients) was 15 and the “Best response: PR” value ([1]; patients) was 0. The “Best response: SD” value ([1]; patients) was 6, the “change of one mPC patient with confirmed SD” value ([2]; 45 mg) was “+6%” and the “treatment duration of one mPC patient with confirmed SD” value ([2]; 45 mg) was > 9 cycles. For the same compound, the “DCR (disease control rate, SD above)” value ([2]; pancreatic cancer) was 4/10, the “ORR (objective response rate, CR + PR)” value ([2]; pancreatic cancer) was 0 and the “Best response: CR” value ([2]; pancreatic cancer, patients) was 0. For the same compound, the “Best response: PD” value ([2]; pancreatic cancer, patients) was 4, the “Best response: PR” value ([2]; pancreatic cancer, patients) was 0 and the “Best response: SD” value ([2]; pancreatic cancer, patients) was 4. The “proportion of NK cells in the spleen and lymph nodes” value [3] was “no significant effect”.
